The values below come from patent US9062088B2, “CDK-inhibiting pyrrolopyrimidine carboxamide derivative or pharmaceutically acceptable salt thereof, and pharmaceutical composition containing the same as active ingredient for preventing or treating hepatocellular carcinoma” (SNU R&DB Foundation, priority 2010, dated 2015).

The subject of one data set is SNU-354 cells. Briefly: Flow cytometry, sub G1 ratio change (Experimental Example 3). In kind it is cell-based, human. Conditions: 10 μM, 24 hours, vehicle = 1.0. On the procedure: SNU-354 cells were seeded in a 90 mm dish, to which vehicle and the compounds of Examples 2˜6 were treated at the concentration of 10 μM each for 24 hours. The cells were collected and washed with cold PBS, followed by reaction in 500 μl of cold 70% ethanol at 4° C. for overnight to fix the cells. The cells were washed with 500 μl of PBS three times, followed by reaction with 500 μl of PBS containing 50 μg/mL propidium iodide (P1) and 50 μl of 1 mg/mL RNAse A at room temperature for 30 minutes in the darkness. Fluorescence of the P1 stained cell was measured by using FACS caliber flow cytometer and cell quest program (Becton Dickinson Immunocytometry Systems, CA, USA). Sub G1 ratio changes of SNU-354 cells induced by the compounds were measured by FACS analysis.

A short description of data set [1]: Body weight of xenograft mice. Conditions: 4 mg/kg and 20 mg/kg intraperitoneal; FIG. 21. In kind it is in vivo, nude mice. As for the experimental part:
Male nude mice at 5˜6 weeks were purchased from Central Lab. Animal Inc. (Republic of Korea). The mice were raised in the test animal laboratory at College of Pharmacy, Seoul National University. All the experiments with test animals were performed by the protocol set by Institute of Laboratory Animal Resources, Seoul National University. 1×10^7 cells of the human hepatocellular carcinoma cell line SNU-354 were suspended in 200 μl of PBS, which was injected into the right front paw of the mouse by subcutaneous injection, followed by observation until the xenograft tumor grew to 100±30 mm^3. The mice having tumors reaching the proper size were divided into three groups (n=8). One of the groups was used as the control (treated with vehicle) and the other two groups were treated with the compound of Example 2 at the concentrations of 4 mg/kg and 20 mg/kg respectively, once a day for 3 weeks (5 times/week) by intraperitoneal injection. The control group was treated with 5% ethanol and 30% polyethylene glycol 200 (Fluka, Netherlands). The administration schedule was marked on data. Tumor size, body weight and other conditions of the animal were observed every day until the tumor size reached 2000 mm^3. The tumor size was calculated by V=a×b×c×π/6 (a=long axis of the tumor, b=short axis of the tumor, c=height of the tumor). 33 days after the treatment, the mice were sacrificed. […]

The test system of another data set is normal liver tissues. Briefly: TUNEL assay and caspase-3 immunohistochemistry of normal liver tissues. Conditions: treated mice; FIG. 23-B. In kind it is in vivo, nude mice. On the procedure:
All the xenografted tumors and liver tissues extracted above were fixed in 36% formaldehyde solution (Junsei Chemical Co., Ltd, Tokyo, JAPAN), followed by paraffin embedding. The embedded tissues were cut into 5 μm sections. H&E staining and TUNEL assay were performed for examining apoptosis with those sections. The expression of cleaved caspase-3 in the tissue section was measured by using cleaved caspase-3 monoclonal antibody (Cell Signaling, MA, USA). ABC peroxidase (Dako Cytomation California, Inc., CA, USA) labeling was performed for immunological sensitization and the results are shown in FIG. 23. As shown in FIG. 23-A, TUNEL positive spots and caspase-3 positive spots were observed more in the group treated with the compound of Example 2 than in the control. […] As shown in FIG. 23-B, it was investigated whether or not the compound of Example 2 could affect normal liver tissues.

The next data set deals with Mcl-1, survivin, XIAP. Briefly: Western blotting of Mcl-1, survivin, XIAP proteins in SNU-354 cells. In kind it is cell-based, human. Conditions: FIG. 13. On the procedure: After treating the compound of Example 2 to SNU-354 cells, cell pellet was lysed with lysis buffer (0.5% triton X-100, 20 mM Tris-HCl (pH 7.5), 2 mM magnesium chloride, 1 mM DTT, 1 mM EGTA, 50 mM β-glycerophosphate, 25 mM sodium fluoride, 1 mM Na3VO4, 2 μg/mL leupeptin, 2 μg/mL pepstatin A, 100 μg/mL phenylmethylsulfonyl fluoride, and 1 μg/mL antipain) at 4° C. for 1 hour, followed by quantification of protein. A proper amount of protein was electrophoresed on SDS-PAGE gel and then transferred onto polyvinylidene difluoride membrane (Millipore Co., Bedford, Mass.). The membrane was reacted in inhibiting solution (PBS, 5% skim milk, 0.1% tween-20) at room temperature for 1˜2 hours. The membrane was reacted with the primary antibody (goat anti-phospho-Rb, rabbit anti-nucleolin) diluted in the inhibiting solution (1:1000). Then, the membrane was washed with PBST, followed by reaction with the proper secondary antibody (horseradish peroxidase (HRP) conjugated) at room temperature for 1 hour.
Experiment was performed by the same manner as described in step 2 of Experimental Example 1 except that rabbit anti-Mcl-1 (from Santa Cruz Biochemicals, CA, USA), rabbit anti-survivin, rabbit anti-XIAP (from Cell Signaling, MA, USA), and rabbit anti-Actin (from Sigma, USA) were used as primary antibodies.
On the technique in general: A western blot detects proteins with antibodies after separation by electrophoresis.

With `CC(C)C(=O)OC[C@@H]1O[C@H](n2cnc(N)c3c(C(N)=O)c(Br)nc2-3)[C@H](O)[C@H]1O` [Example 2, ((2S,3R,4R,5S)-5-(4-amino-6-bromo-5-carbamoyl-1H-pyrrolo[2,3-d]pyrimidin-1-yl)-3,4-dihydroxy-tetrahydrofuran-2-yl)methyl isobutyrate], the “sub G1 ratio change” value with SNU-354 cells was 5.9. For the same compound, the “weight change of test animals” value in data set [1] is listed as “no weight change”. Besides, in the data set on normal liver tissues, the “apoptosis in normal liver tissues (TUNEL, caspase-3 immunohistochemistry)” value is given as “apoptosis was not observed at all”. In addition, the “Mcl-1, Survivin and XIAP protein level” value in the data set on Mcl-1, survivin, XIAP is on record as “down-regulated”.
